In brackets after ≈: the same amount, converted by molar mass. Activity calls are given as the source filed them. The rule behind the calls is not given here.
Key:
[1] = test system: Spodoptera frugiperda; assay: Growth inhibitory activity against first-instar larval stage of Spodoptera frugiperda (fall armyworm) fed with compound incorporated diet assessed as weight gained at 50 ug/ml after 7 days (reference value: 100%); type: functional; parameters: scale not given: the % may be the effect or the level left
[2] = test system: Spodoptera frugiperda; assay: Growth inhibitory activity against first-instar larval stage of Spodoptera frugiperda (fall armyworm) fed with compound incorporated diet assessed as weight gained at 35 ug/ml after 7 days (reference value: 100%); type: functional; parameters: scale not given: the % may be the effect or the level left
[3] = test system: Spodoptera frugiperda; assay: Growth inhibitory activity against first-instar larval stage of Spodoptera frugiperda (fall armyworm) fed with compound incorporated diet assessed as weight gained at 20 ug/ml after 7 days (reference value: 100%); type: functional; parameters: scale not given: the % may be the effect or the level left
[4] = test system: Spodoptera frugiperda; assay: Growth inhibitory activity against first-instar larval stage of Spodoptera frugiperda (fall armyworm) fed with compound incorporated diet assessed as weight gained at 10 ug/ml after 7 days (reference value: 100%); type: functional; parameters: scale not given: the % may be the effect or the level left
[5] = test system: Spodoptera frugiperda; assay: Growth inhibitory activity against Spodoptera frugiperda (fall armyworm) larvae fed with compound containing diet assessed as relative growth index at 5 ug/ml (reference value: 1.0 no_unit); type: functional
[6] = test system: Spodoptera frugiperda; assay: Growth inhibitory activity against Spodoptera frugiperda (fall armyworm) larvae fed with compound containing diet assessed as growth index at 35 ug/ml (reference value: 0.95 +/-0.02 no_unit); type: functional
[7] = test system: Drosophila melanogaster; assay: Insecticidal activity against Drosophila melanogaster larvae fed with compound incorporated diet assessed as mortality after 72 hr by not choice test; type: functional
[8] = test system: Spodoptera frugiperda; assay: Growth inhibitory activity against Spodoptera frugiperda (fall armyworm) larvae fed with compound containing diet assessed as growth index at 10 ug/ml (reference value: 0.95 +/-0.02 no_unit); type: functional
[9] = test system: Spodoptera frugiperda; assay: Growth inhibitory activity against Spodoptera frugiperda (fall armyworm) larvae fed with compound containing diet assessed as growth index at 5 ug/ml (reference value: 0.95 +/-0.02 no_unit); type: functional
[10] = test system: Spodoptera frugiperda; assay: Growth inhibitory activity against Spodoptera frugiperda (fall armyworm) larvae fed with compound containing diet assessed as reduction in adult emergence at 20 ug/ml; type: functional
[11] = test system: Spodoptera frugiperda; assay: Growth inhibitory activity against Spodoptera frugiperda (fall armyworm) larvae fed with compound containing diet assessed as reduction in pupae weight at 25 ug/ml; type: functional, organism-based
[12] = test system: Spodoptera frugiperda; assay: Growth inhibitory activity against Spodoptera frugiperda (fall armyworm) larvae fed with compound containing diet assessed as reduction in survival pupation at >10 ug/ml; type: functional
[13] = test system: Spodoptera frugiperda; assay: Growth inhibitory activity against po dosed Spodoptera frugiperda (fall armyworm) larvae assessed as promotion of apolysis to fifth instar with ecdysis inhibition at 5 to 20 ug/ml; type: functional, organism-based
[14] = test system: Drosophila melanogaster; assay: Insecticidal activity against Drosophila melanogaster larvae fed with compound incorporated diet assessed as mortality at 20 ug/ml after 72 hr by not choice test (reference value: 0%); type: functional
[15] = test system: Drosophila melanogaster; assay: Insecticidal activity against Drosophila melanogaster larvae fed with compound incorporated diet assessed as mortality at 10 ug/ml after 72 hr by not choice test (reference value: 0%); type: functional
[16] = test system: Spodoptera frugiperda; assay: Insecticidal activity against first-instar larval stage of Spodoptera frugiperda (fall armyworm) fed with compound incorporated diet assessed as mortality at 40 ug/ml after 7 days; type: functional, organism-based
[17] = test system: Spodoptera frugiperda; assay: Insecticidal activity against first-instar larval stage of Spodoptera frugiperda (fall armyworm) fed with compound incorporated diet assessed as mortality at 50 to 100 ug/ml after 7 days; type: functional
[18] = test system: Spodoptera frugiperda; assay: Insecticidal activity against first-instar larval stage of Spodoptera frugiperda (fall armyworm) fed with compound incorporated diet assessed as mortality at 35 ug/ml after 21 days (reference value: 5.6%); type: functional; conditions: 504 h
[19] = test system: Spodoptera frugiperda; assay: Growth inhibitory activity against first-instar larval stage of Spodoptera frugiperda (fall armyworm) fed with compound incorporated diet assessed as length gained at 20 ug/ml after 21 days (reference value: 100%); type: functional; parameters: scale not given: the % may be the effect or the level left
[20] = test system: Spodoptera frugiperda; assay: Growth inhibitory activity against first-instar larval stage of Spodoptera frugiperda (fall armyworm) fed with compound incorporated diet assessed as length gained at 10 ug/ml after 21 days (reference value: 100%); type: functional
[21] = test system: Spodoptera frugiperda; assay: Growth inhibitory activity against first-instar larval stage of Spodoptera frugiperda (fall armyworm) fed with compound incorporated diet assessed as length gained at 5 ug/ml after 21 days (reference value: 100%); type: functional
[22] = test system: Spodoptera frugiperda; assay: Growth inhibitory activity against first-instar larval stage of Spodoptera frugiperda (fall armyworm) fed with compound incorporated diet assessed as weight gained at 50 ug/ml after 21 days (reference value: 100%); type: functional
[23] = test system: Spodoptera frugiperda; assay: Growth inhibitory activity against first-instar larval stage of Spodoptera frugiperda (fall armyworm) fed with compound incorporated diet assessed as weight gained at 35 ug/ml after 21 days (reference value: 100%); type: functional
[24] = test system: Spodoptera frugiperda; assay: Growth inhibitory activity against first-instar larval stage of Spodoptera frugiperda (fall armyworm) fed with compound incorporated diet assessed as weight gained at 20 ug/ml after 21 days (reference value: 100%); type: functional
[25] = test system: Spodoptera frugiperda; assay: Growth inhibitory activity against first-instar larval stage of Spodoptera frugiperda (fall armyworm) fed with compound incorporated diet assessed as weight gained at 10 ug/ml after 21 days (reference value: 100%); type: functional
[26] = test system: Spodoptera frugiperda; assay: Growth inhibitory activity against first-instar larval stage of Spodoptera frugiperda (fall armyworm) fed with compound incorporated diet assessed as weight gained at 5 ug/ml after 21 days (reference value: 100%); type: functional
[27] = test system: Spodoptera frugiperda; assay: Insecticidal activity against first-instar larval stage of Spodoptera frugiperda (fall armyworm) fed with compound incorporated diet assessed as mortality at 50 ug/ml after 7 days (reference value: 5.6%); type: functional; conditions: 168 h
[28] = test system: Spodoptera frugiperda; assay: Insecticidal activity against first-instar larval stage of Spodoptera frugiperda (fall armyworm) fed with compound incorporated diet assessed as mortality at 20 ug/ml after 7 days (reference value: 5.6%); type: functional; conditions: 168 h
[29] = test system: Spodoptera frugiperda; assay: Insecticidal activity against first-instar larval stage of Spodoptera frugiperda (fall armyworm) fed with compound incorporated diet assessed as mortality at 10 ug/ml after 7 days (reference value: 5.6%); type: functional; conditions: 168 h
[30] = test system: Spodoptera frugiperda; assay: Insecticidal activity against first-instar larval stage of Spodoptera frugiperda (fall armyworm) fed with compound incorporated diet assessed as mortality at 5 ug/ml after 7 days (reference value: 5.6%); type: functional; conditions: 168 h
[31] = test system: Spodoptera frugiperda; assay: Insecticidal activity against first-instar larval stage of Spodoptera frugiperda (fall armyworm) fed with compound incorporated diet assessed as mortality at 20 ug/ml after 21 days (reference value: 5.6%); type: functional; conditions: 504 h
[32] = test system: Spodoptera frugiperda; assay: Insecticidal activity against first-instar larval stage of Spodoptera frugiperda (fall armyworm) fed with compound incorporated diet assessed as mortality at 10 ug/ml after 21 days (reference value: 5.6%); type: functional; conditions: 504 h
[33] = test system: Spodoptera frugiperda; assay: Insecticidal activity against first-instar larval stage of Spodoptera frugiperda (fall armyworm) fed with compound incorporated diet assessed as mortality at 5 ug/ml after 21 days (reference value: 5.6%); type: functional; conditions: 504 h
[34] = test system: Spodoptera frugiperda; assay: Growth inhibitory activity against first-instar larval stage of Spodoptera frugiperda (fall armyworm) fed with compound incorporated diet assessed as length gained at 50 ug/ml after 21 days (reference value: 100%); type: functional
[35] = test system: Spodoptera frugiperda; assay: Growth inhibitory activity against first-instar larval stage of Spodoptera frugiperda (fall armyworm) fed with compound incorporated diet assessed as length gained at 35 ug/ml after 7 days (reference value: 100%); type: functional
[36] = test system: Spodoptera frugiperda; assay: Growth inhibitory activity against first-instar larval stage of Spodoptera frugiperda (fall armyworm) fed with compound incorporated diet assessed as length gained at 50 ug/ml after 7 days (reference value: 100%); type: functional
[37] = test system: Spodoptera frugiperda; assay: Growth inhibitory activity against first-instar larval stage of Spodoptera frugiperda (fall armyworm) fed with compound incorporated diet assessed as length gained at 20 ug/ml after 7 days (reference value: 100%); type: functional

Q: What does the source list for `C=CC(C)(C)C1=C(O)C(=O)c2ccccc2C1=O`?
A: Activity [1]: 0%; Activity [2]: 5%; Activity [3]: 15.9%; Activity [4]: 29.3%; Growth_index [5]: 0.69; Growth_index [6]: 0.09; LC50 [7]: 15.8 µg/mL (≈ 65.2 µM); Growth_index [8]: 0.41; Growth_index [9]: 0.71; inhibition at 20 µg/mL [10]: 0%; inhibition [11]: Active; inhibition (INH) [12]: 0%; Activity [13]: Active; mortality at 20 µg/mL [14]: 65%; mortality at 10 µg/mL [15]: 30%; mortality [16]: Active; mortality [17]: 100%; mortality at 35 µg/mL [18]: 100%; Activity [19]: 4.1%; Length gained relative to control [20]: 39.8%; Length gained (% of control) [21]: 64.3%; Weight gain relative to control [22]: 0%; Weight gain relative to control [23]: 7.8%; Weight gain relative to control [24]: 9%; Weight gain (% of control) [25]: 27.7%; Larval weight gain relative to control [26]: 35.6%; mortality at 50 µg/mL [27]: 100%; mortality at 20 µg/mL [28]: 91.7%; mortality at 10 µg/mL [29]: 83.3%; mortality at 5 µg/mL [30]: 41.7%; mortality at 20 µg/mL [31]: 98%; mortality at 10 µg/mL [32]: 41.7%; mortality at 5 µg/mL [33]: 66.7%; Length gained (% of control) [34]: 0%; Length gained relative to control [35]: 10%; Length gain relative to control [36]: 0%; Length gained relative to control [37]: 20.8%

Reference: ChEMBL document CHEMBL3046322, “Insect growth regulatory effects by diterpenes from Calceolaria talcana Grau & Ehrhart (Calceolariaceae: Scrophulariaceae) against Spodoptera frugiperda and Drosophila melanogaster” (2013)
